# pIC50, pKd: −log10 of the molar value. Where two headings read alike, the source gives them in different places.
# Legend:
# EBOV = conditions: cited from earlier work
# HIV-1/EBOV pseudovirus [1] = test system: HIV-1/EBOV pseudovirus
# HIV-1/LASV pseudovirus = test: microbe, parasite or virus in culture; assay type: cell-based; conditions: Human immunodeficiency virus 1, A549, 48 h, read-out: Inhibition HIV-1/LASV
# HIV-1/EBOV pseudovirus [2] = test: organism not typed; conditions: A549, 48 h, read-out: Inhibition HIV-1/EBOV
# HIV-1/EBOV pseudovirus [3] = test: microbe, parasite or virus in culture; conditions: Zaire ebolavirus, A549, read-out: IC50 (anti-HIV-1/EBOV)
# in vitro = conditions: human
# HIV-1/H5N1 pseudovirus = test: organism not typed; assay type: cell-based, influenza A virus A/Goose/Qinghai/59/05 (H5N1); conditions: A549, 48 h, read-out: Inhibition HIV-1/H5N1
# [4] = test system: EBOV Mayinga isolate (EBOV-GFP); test: microbe, parasite or virus in culture; assay type: cell-based, Ebola virus; conditions: for pIC50: read-out: IC50 against replication of infectious EBOV
# Ebola glycoprotein = conditions: cited from earlier work
smiles,measurement,setting,value
O=c1oc2c(O)c(O)cc3c(=O)oc4c(O)c(O)cc1c4c23 [Ellagic acid],pIC50,EBOV,5.85
COc1ccc(S(=O)(=O)N(CC(=O)Nc2ccccc2-c2ccccc2)c2ccc(C)cc2)cc1 [MBX 2254],IC90,EBOV,3000 nM
CN(C)Cc1ccc(-c2cc3cc(Br)ccc3nc2OCc2ccc(Cl)cc2)cc1 [SYL1712],SI (CC50/IC50),HIV-1/EBOV pseudovirus [1],225.9
same,pIC50,HIV-1/EBOV pseudovirus [1]; read-out: IC50 (anti-HIV-1/EBOV),6.02
same,inhibition at 10 µM,HIV-1/LASV pseudovirus,55.4%
same,inhibition at 10 µM,HIV-1/EBOV pseudovirus [2],99.4%
same,pIC50,HIV-1/EBOV pseudovirus [3],~6.00
same,viability at 10 µM,in vitro,96.9%
same,inhibition at 10 µM,HIV-1/H5N1 pseudovirus,5.75%
same,selective index (SI),[4],37.2
same,pIC50,"[4]; Zaire ebolavirus, HeLa, 24 h",5.70
same,pIC50,[4],5.70
"CCN(CC)CC(=O)NCc1cc(-c2ccc(I)cc2)no1 [3,5-Disubstituted isoxazole]",pIC50,EBOV,5.60
FC(F)C(F)(F)C1=Nc2ccccc2N=C(c2ccccc2)C1 [benzodiazepine],IC90,EBOV,3500 nM
CN(C)CCOc1ccc(/C(=C(/CCCl)c2ccccc2)c2ccccc2)cc1 [Toremifene],pKd,Ebola glycoprotein,4.80

# Source: paper PMC6315506 (Viruses, 2018)
